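Exposure lasted 48 hours, with cells grown in 96-well plates and compounds tested at five concentrations. The concentration for 50% growth inhibition is given as GI50. TGI is the concentration that stops growth completely.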
What was measured:
Test in all cases: NCI anticancer screen, dose series, 48 h
[1] = system: SN12C renal
[2] = system: NCI-H23 lung
[3] = system: EKVX NSCLC
[4] = system: UACC-257 melanoma
[5] = system: COLO 205 colon
[6] = system: HOP-92 NSCLC
[7] = system: SNB-19 CNS
[8] = system: MOLT-4 leukemia
[9] = system: PC-3 prostate
[10] = system: DU-145 prostate

Compound	TGI [1]	TGI [2]	TGI [3]	TGI [4]	TGI [5]	TGI [6]	TGI [7]	TGI [8]	GI50 [1]	GI50 [2]	GI50 [4]	GI50 [9]	TGI [9]	GI50 [10]	TGI [10]	GI50 [5]	GI50 [6]	GI50 [7]	GI50 [8]	GI50 [3]
N#Cc1ccccc1/C=N/O	> 100 µM	> 100 µM	> 100 µM	> 100 µM	> 74.9 µM	> 100 µM	> 100 µM	> 100 µM	–	–	–	–	–	–	–	–	–	–	–	–
[O-][N+]1=C(c2ccccc2)COc2ccccc21	> 100 µM	> 100 µM	–	> 100 µM	> 100 µM	> 100 µM	> 100 µM	> 100 µM	–	–	–	–	–	–	–	–	–	–	–	–
Cc1ccc(S(=O)(=O)N2C/C(=C\c3cc(F)cc(F)c3)C(=O)/C(=C/c3cc(F)cc(F)c3)C2)cc1	0.861 µM	4.14 µM	–	2.33 µM	2.33 µM	3.17 µM	1.1 µM	2.11 µM	0.272 µM	1.14 µM	0.583 µM	0.22 µM	0.612 µM	0.787 µM	2.39 µM	0.653 µM	1.1 µM	0.29 µM	0.299 µM	–
Cc1ccc(S(=O)(=O)NC(=O)Nc2nc(Cl)cc(Cl)n2)cc1	> 100 µM	> 100 µM	> 100 µM	> 100 µM	> 100 µM	> 100 µM	> 100 µM	> 100 µM	–	–	–	–	–	–	–	–	–	–	–	–
C/C(CC(=O)Nc1ccc([N+](=O)[O-])cc1)=N/N=C(N)N	–	> 100 µM	> 100 µM	> 100 µM	> 100 µM	> 100 µM	–	> 100 µM	–	–	–	–	–	–	–	–	–	–	–	–
C[C@H]1[C@H](C)CC[C@]2(C(=O)O)CC[C@]3(C)C(=CC[C@@H]4[C@@]5(C)CC[C@H](OC(=O)/C=C\c6ccc(O)cc6)C(C)(C)[C@@H]5CC[C@]43C)[C@H]12	6.76 µM	15.9 µM	13.7 µM	8.49 µM	14.8 µM	19.2 µM	31.1 µM	19.7 µM	1.67 µM	3.48 µM	1.46 µM	–	–	4.07 µM	17.6 µM	3.85 µM	4.25 µM	10.5 µM	4.56 µM	3.11 µM
COC(=O)c1cc(O)ccc1NC(=O)c1ccc(O)cc1	–	> 100 µM	> 100 µM	> 100 µM	> 100 µM	> 100 µM	> 100 µM	> 100 µM	–	–	–	–	–	–	–	–	–	–	–	–
Cc1cc2c(=O)cc(-c3ccc(C(=O)O)cc3)oc2c(C(=O)O)c1C	> 100 µM	> 100 µM	> 100 µM	> 100 µM	> 100 µM	> 100 µM	> 100 µM	> 100 µM	–	–	–	–	–	–	–	–	–	–	–	–
O=C1CC23CC(=O)CC2(C1)c1ccccc1C3=O (stereo unspecified)	> 100 µM	> 100 µM	> 100 µM	> 100 µM	> 100 µM	–	> 100 µM	> 100 µM	–	–	–	–	–	–	–	–	–	–	–	–
O=C(CCc1cc(-c2ccco2)n(-c2ccc([N+](=O)[O-])cc2[N+](=O)[O-])n1)Nc1ccccc1	> 100 µM	> 100 µM	> 100 µM	> 100 µM	> 100 µM	> 100 µM	> 100 µM	> 100 µM	–	–	–	–	–	–	–	–	–	–	–	–
C=C1CCC2C(C)(CO)C(O)CCC2(C)C1CC(O)C1=CCOC1=O (stereo unspecified)	> 100 µM	> 100 µM	> 100 µM	> 100 µM	> 100 µM	> 100 µM	> 100 µM	> 100 µM	–	–	–	–	–	–	–	–	–	–	–	–
O=C(Nc1cccc(-n2cc(-c3ccncc3)c(-c3ccc(O)c(Cl)c3)n2)c1)Nc1ccc(Cl)c(C(F)(F)F)c1	13.4 µM	6.5 µM	–	4.39 µM	3.32 µM	2.93 µM	> 100 µM	4.65 µM	2.99 µM	2.1 µM	1.98 µM	1.77 µM	4.36 µM	2.54 µM	7.76 µM	1.77 µM	0.455 µM	3.63 µM	1.64 µM	–
NNc1nc(-c2ccccn2)nc2sc3c(c12)CCCCCC3	> 100 µM	> 100 µM	–	77.4 µM	> 100 µM	48.6 µM	–	22.7 µM	6.36 µM	9 µM	6.61 µM	3.98 µM	> 100 µM	9.48 µM	> 100 µM	5.07 µM	3.54 µM	–	3.67 µM	–
N=C(N)c1ccc(-c2ccc(-c3ccco3)o2)cc1F	6.53 µM	–	–	3.08 µM	3.62 µM	2.98 µM	13.4 µM	5.22 µM	2.01 µM	–	1.59 µM	–	–	3.27 µM	11.5 µM	1.8 µM	0.968 µM	2.48 µM	2.27 µM	–
COc1ccc(/C=C/C(=O)c2ccc(NC(=O)CSc3nnc(-c4cc(OC)c(OC)c(OC)c4)o3)cc2)cc1	3.57 µM	3.97 µM	–	4.69 µM	3.84 µM	4.23 µM	3.56 µM	5.27 µM	1.83 µM	1.88 µM	2.16 µM	1.75 µM	3.3 µM	1.75 µM	3.21 µM	1.94 µM	1.93 µM	1.78 µM	2.05 µM	–
COc1ccc2c(c1)N(CCO)C1=C(C(=O)OC1)C2c1cccc(Br)c1 (stereo unspecified)	> 88.1 µM	> 100 µM	> 100 µM	40.7 µM	0.464 µM	–	> 100 µM	> 100 µM	0.45 µM	0.156 µM	0.034 µM	0.0618 µM	54.4 µM	0.156 µM	1.15 µM	0.103 µM	–	0.141 µM	0.458 µM	0.694 µM
COC(=O)/C(Cl)=C1/CC1COCc1ccccc1 (stereo unspecified)	> 100 µM	88.2 µM	> 10 µM	> 100 µM	44.4 µM	50.4 µM	> 100 µM	53.5 µM	–	–	–	–	–	–	–	–	–	–	–	–
NC(CCCNCc1ccccc1O)C(=O)O (stereo unspecified)	> 100 µM	> 100 µM	> 100 µM	> 100 µM	> 100 µM	> 100 µM	> 100 µM	> 100 µM	–	–	–	–	–	–	–	–	–	–	–	–
O=S(=O)(c1ccccc1)C1CN(Cc2ccccc2)CCN(Cc2ccccc2)C1	> 100 µM	> 100 µM	> 100 µM	> 100 µM	> 100 µM	–	> 100 µM	> 100 µM	–	–	–	–	45.3 µM	–	> 100 µM	–	–	–	–	–

Compound	TGI [1]	TGI [2]	TGI [3]	TGI [4]	TGI [5]	TGI [6]	TGI [7]	TGI [8]	GI50 [1]	GI50 [2]	GI50 [4]	GI50 [9]	TGI [9]	GI50 [10]	TGI [10]	GI50 [5]	GI50 [6]	GI50 [7]	GI50 [8]	GI50 [3]
COc1ccc2c(c1)CC[C@@H]1[C@@H]2CC[C@]2(C)c3c(cc(C(=O)c4ccccc4)c4sccc34)C[C@@H]12	> 100 µM	> 100 µM	> 100 µM	> 100 µM	> 100 µM	–	> 100 µM	> 100 µM	> 100 µM	> 100 µM	> 100 µM	38.1 µM	> 100 µM	> 100 µM	> 100 µM	> 100 µM	–	> 100 µM	> 100 µM	> 100 µM
O=[N+]([O-])c1ccc(C2N3CCCCC3[C@@H]3c4[nH]c5ccccc5c4CCN23)cc1 (stereo partly specified)	32.3 µM	35.7 µM	> 100 µM	41.2 µM	38 µM	> 100 µM	67.1 µM	49.6 µM	–	–	–	–	–	–	–	–	–	–	–	–
COc1ccc(OC)c2c3c(ncc12)-c1cc2c(cc1C3)OCO2	> 100 µM	–	> 100 µM	> 100 µM	> 100 µM	> 100 µM	> 100 µM	–	> 100 µM	–	38.5 µM	> 100 µM	> 100 µM	48.4 µM	> 100 µM	> 100 µM	> 100 µM	> 100 µM	–	93.4 µM
COc1ccc(-c2oncc2-c2cc(OC)c3c(c2)OCO3)cc1	> 100 µM	> 100 µM	–	> 100 µM	10.4 µM	28.6 µM	> 100 µM	> 92.6 µM	5.23 µM	4.94 µM	> 20 µM	2.99 µM	> 66.1 µM	3.93 µM	> 100 µM	2.8 µM	2.08 µM	5.25 µM	3.9 µM	–
C/C(CN1C(=O)c2ccccc2C1=O)=N\NS(C)(=O)=O	> 100 µM	> 100 µM	> 100 µM	> 100 µM	> 100 µM	–	> 100 µM	> 100 µM	–	–	–	–	–	–	–	–	–	–	–	–
O=CN/C=C/c1ccccc1O	> 100 µM	> 100 µM	> 100 µM	> 100 µM	> 100 µM	> 100 µM	> 100 µM	> 100 µM	–	–	–	–	–	–	> 100 µM	–	–	–	–	–
O=C(Cc1nc2ccccc2s1)NC12CC3CC(CC(C3)C1)C2	> 100 µM	> 100 µM	> 100 µM	> 100 µM	–	> 100 µM	> 100 µM	> 100 µM	–	–	–	–	–	–	–	–	–	–	–	–
O=C(Nc1cc(Cl)cc(Cl)c1)c1ccc(NC2=C(Cl)C(=O)N(Cc3ccccc3)C2=O)cc1	22.6 µM	16.3 µM	28.7 µM	27.1 µM	> 100 µM	–	> 100 µM	4.91 µM	6.83 µM	4.16 µM	11.5 µM	3.29 µM	12.7 µM	0.96 µM	6.91 µM	28.6 µM	–	41.7 µM	1.51 µM	13.9 µM
O=C(CN/C=C\C(=O)c1cc(Cl)ccc1Cl)c1ccccc1	57.1 µM	44.2 µM	99.2 µM	61.9 µM	> 100 µM	–	> 100 µM	> 100 µM	25.9 µM	19.1 µM	24.7 µM	26 µM	67 µM	33.4 µM	> 100 µM	34.9 µM	–	47.4 µM	> 100 µM	31.1 µM
CCOCC[P+](c1ccccc1)(c1ccccc1)c1ccccc1	> 100 µM	80.9 µM	–	49.6 µM	26.5 µM	–	> 100 µM	> 100 µM	24.6 µM	17.5 µM	6.86 µM	10.8 µM	72.9 µM	27.5 µM	> 100 µM	11.7 µM	–	21.3 µM	31.4 µM	–
COC(=O)[C@]1(C)CCC[C@]2(C)C3CC4OOC3(C=C4C(C)C)CCC21 (stereo partly specified)	31.7 µM	32.8 µM	30.4 µM	32 µM	39.4 µM	–	31.3 µM	49.8 µM	–	–	–	–	–	–	–	–	–	–	–	–
COc1ccc(/C=C2\CCCC3=C2N=C2SC=NN2C3c2ccc(OC)c(OC)c2)cc1OC (stereo unspecified)	> 100 µM	> 100 µM	–	> 100 µM	> 100 µM	58.9 µM	> 100 µM	> 100 µM	18.2 µM	22.4 µM	10.5 µM	37.8 µM	> 100 µM	23 µM	> 100 µM	7.58 µM	11.6 µM	32.9 µM	21.4 µM	–
CC(C)(C)C1CCN(C(=O)c2ccccc2)CC1	> 100 µM	> 100 µM	> 100 µM	> 100 µM	> 100 µM	–	> 100 µM	> 100 µM	–	–	–	–	–	–	–	–	–	–	–	–
C#Cc1ccc(-n2c(/C=C/c3ccc4ccccc4n3)nc3ncccc3c2=O)cc1	2.03 µM	2.32 µM	–	1.92 µM	0.734 µM	1.8 µM	–	> 100 µM	0.469 µM	0.774 µM	0.436 µM	0.341 µM	1.75 µM	–	–	0.3 µM	0.37 µM	–	0.456 µM	–
Clc1cccc(Cc2cn3cc(-c4ccccc4)nc3s2)c1	> 100 µM	98.9 µM	–	> 100 µM	–	34.3 µM	> 100 µM	> 100 µM	7.41 µM	9.07 µM	10.3 µM	14.4 µM	> 100 µM	17.7 µM	> 100 µM	–	11.5 µM	8.92 µM	> 100 µM	–
O=c1[nH]c(C2CCCCC2)nc2cc(Cl)ccc12	> 100 µM	> 100 µM	> 100 µM	> 100 µM	> 100 µM	94.3 µM	> 100 µM	> 100 µM	–	–	–	–	–	–	–	–	–	–	–	–
Cc1ccccc1C(C#N)/C(=N/NC(=O)C(=O)NN)C(=O)Nc1cccc(C(F)(F)F)c1 (stereo unspecified)	> 100 µM	> 100 µM	> 100 µM	> 100 µM	> 100 µM	> 100 µM	> 100 µM	> 100 µM	–	–	–	–	–	–	–	–	–	–	–	–
COC(=O)C1CCc2nnc(-c3cccnc3)n21 (stereo unspecified)	> 100 µM	–	> 100 µM	> 100 µM	> 100 µM	–	> 100 µM	> 100 µM	–	–	–	–	–	–	–	–	–	–	–	–
